In US9402821B2, “Methods and pharmaceutical compositions for treatment of cystic fibrosis” (INSERM (Institut National de la sante et de la Recherche …, priority 2012, dated 2016):
“Also recorded” adds a separate entry of the source. Where two headings read alike, the source gives them in different places.

Assays:
CFTR = CFTR (Homo sapiens, UniProt P13569); experiment: CFTR maturation by Western blot of membrane extracts; format: cell-based; set-up: expressed in transfected cells; conditions: 500 μM
Description: B. Chloride activity in HeLa Wt cells was measured by MQAE assay, after 3 h of treatment by NSAID (500 μM) or diluent. CFTR activity was expressed in rate of UFA/sec, calculated by difference between ((Ft−F0)/t) with CFTR induction and ((Ft−F0)/t) without CFTR induction. […] C. Primary culture of human nasal epithelial cell (HNEC) grown on Snapwell filters (air-liquid interface) were exposed basolaterally to sulindac (500 μM) or vehicle for 2 h and immediately mounted into a voltage-clamp system to bioelectric measurements. Short circuit current was measured with addition of amiloride to evaluated amiloride sensitive transport or with forskolin and IBMX for induced cAMP-dependent Cl secretion.
To study the CFTR protein present at the cell membrane, a protocol of purification by differential centrifugations was used. CFTR wt and delta F508 HeLa cells (2×10^5 cells/cm^2) were lysed with hypotonic lysis buffer (10 mM de KCl, 1 mM de MgCl2, 10 mM Hepes pH 7, 4 and protease inhibitor). Mechanic lysis of cells was realized with minimum 10 strokes of a 26G syringe. Samples were centrifuged 10 min at 3000 g to eliminate cellular fragments and nuclear fraction in the pellet. Then supernatant was centrifuged 45 min at 50 000 g. The pellets with cellular membrane were resolubilized in RIPA buffer.
Aliquots of membrane cell extracts (30 μg protein) were separated by 7% SDS-PAGE and transferred on PVDF membrane. The western blots were probed with mouse monoclonal antibodies specific for CFTR (MM13-4, Millipore) 2 h at room temperature.

IL-8 production = conditions: CF cells; recent study [5]; cited from earlier work
[1] = system: NF-κB transcriptional activity; conditions: CF cells; recent study [5]; cited from earlier work
[2] = system: NF-κB transcriptional activity; experiment: NF-κB firefly luciferase reporter assay, TNFα-stimulated cells; format: cell-based; conditions: TNFα 10 ng/ml
Description: All cells were transiently transfected by NF-κB firefly luciferase reporter and renilla luciferase reference. A. HeLa control cells (Ctr) were pre-treated with diluent (0.5%) or different doses of sulindac for 1 h and stimulated for 1 h with 10 ng/ml TNFα. After removal of TNFα, cells were incubated for 4 h with sulindac. Luciferase activity was analysed in protein extract. The NF-κB transcriptional activity in cells treated with sulindac+TNFα was expressed in percent of diluent+TNFα. B. Hela cells Wt, DF508 and Ctr were pre-treated with diluent (0.5%), ibuprofen (500 μM) or sulindac (500 μM) for 1 h and stimulated for 1 h with […] TNFα. After removal of TNFα, cells were incubated for 4 h with pharmacological treatment. The NF-κB transcriptional activity in cells treated with ibuprofen+TNFα and sulindac+TNFα was expressed in percent of diluent+TNFα. Results of at least three independent experiments, means±SEM. Unilateral paired t test: * p<0.02
All cells were pre-treated with diluent (0.5%), sulindac ([…]) or sulindac sulfone (250 μM) for 1 h and stimulated for 1 h with 10 ng/ml TNFα. […]
Plasmid Constructs and Transient Transfection To assay the transcriptional activity of NF-κB, pNF-κBLuc, a luciferase reporter plasmid containing five sequential NF-κB binding sites upstream of a minimum promoter element, NF-κB-Luc (Stratagene), was used. Transcriptional activity of the IL-8 promoter was evaluated with reporter constructs consisting of the IL-8 promoter (−133 bp from the transcription start site) fused to the Luciferase gene, kindly provided by Naofumi Mukaida. […]
(§1) Cells were lysed with the Passive Lysis Buffer (Promega), and luciferase activity in the cellular extracts was determined by the Dual Luciferase Assay System (Promega) using a luminometer (Tristar; Berthold). The results were normalized to those obtained with the Renilla luciferase reference plasmid used to control the transfection efficiency, and the values were expressed as luminescence intensity (Luciferase/Renilla). […]
The transcriptional activity of NF-κB and IL-8 promoter was measured as described before. […]

cyclooxygenase = conditions: cited from earlier work
IL-8 promoter = IL-8 promoter luciferase reporter / IL-8 mRNA qPCR, TNFα-stimulated cells; format: cell-based; conditions: 250 μM; TNFα 10 ng/ml; HeLa CFTR wt and CFTR DF508 (FIG. 8B)
Description: Cells were transiently transfected by the short IL-8 promoter-firefly luciferase reporter and renilla luciferase reference and inflammation was induced by 10 ng/ml TNFα for 1 h. A. HeLa cells were pre-treated with diluent or different doses of sulindac 1 h before inflammation induction and 4 h after. IL-8 promoter activity in cells treated with sulindac+TNFα was expressed in percent of diluent+TNFα. B. After treatment, HeLa Ctr cells were lysed with TRIzol (Invitrogen). Total RNA was extracted, and 1 μg of total RNA was reverse transcribed with a reverse transcription kit. IL-8 mRNA expression was quantified by real-time quantitative PCR (qPCR). The comparative threshold cycle (CT) method was used for relative quantification of PCR products after IL-8 was normalised to TBP (ΔCt=CtIL-8−CtTBP). […] C After treatment, IL-8 in supernatant was measured by ELISA. The IL-8 stimulation of cells treated with test drug +TNFα were expressed as fold compared to drug −TNFα. […]
as §1

Sequence of CFTR (P13569 whole entry): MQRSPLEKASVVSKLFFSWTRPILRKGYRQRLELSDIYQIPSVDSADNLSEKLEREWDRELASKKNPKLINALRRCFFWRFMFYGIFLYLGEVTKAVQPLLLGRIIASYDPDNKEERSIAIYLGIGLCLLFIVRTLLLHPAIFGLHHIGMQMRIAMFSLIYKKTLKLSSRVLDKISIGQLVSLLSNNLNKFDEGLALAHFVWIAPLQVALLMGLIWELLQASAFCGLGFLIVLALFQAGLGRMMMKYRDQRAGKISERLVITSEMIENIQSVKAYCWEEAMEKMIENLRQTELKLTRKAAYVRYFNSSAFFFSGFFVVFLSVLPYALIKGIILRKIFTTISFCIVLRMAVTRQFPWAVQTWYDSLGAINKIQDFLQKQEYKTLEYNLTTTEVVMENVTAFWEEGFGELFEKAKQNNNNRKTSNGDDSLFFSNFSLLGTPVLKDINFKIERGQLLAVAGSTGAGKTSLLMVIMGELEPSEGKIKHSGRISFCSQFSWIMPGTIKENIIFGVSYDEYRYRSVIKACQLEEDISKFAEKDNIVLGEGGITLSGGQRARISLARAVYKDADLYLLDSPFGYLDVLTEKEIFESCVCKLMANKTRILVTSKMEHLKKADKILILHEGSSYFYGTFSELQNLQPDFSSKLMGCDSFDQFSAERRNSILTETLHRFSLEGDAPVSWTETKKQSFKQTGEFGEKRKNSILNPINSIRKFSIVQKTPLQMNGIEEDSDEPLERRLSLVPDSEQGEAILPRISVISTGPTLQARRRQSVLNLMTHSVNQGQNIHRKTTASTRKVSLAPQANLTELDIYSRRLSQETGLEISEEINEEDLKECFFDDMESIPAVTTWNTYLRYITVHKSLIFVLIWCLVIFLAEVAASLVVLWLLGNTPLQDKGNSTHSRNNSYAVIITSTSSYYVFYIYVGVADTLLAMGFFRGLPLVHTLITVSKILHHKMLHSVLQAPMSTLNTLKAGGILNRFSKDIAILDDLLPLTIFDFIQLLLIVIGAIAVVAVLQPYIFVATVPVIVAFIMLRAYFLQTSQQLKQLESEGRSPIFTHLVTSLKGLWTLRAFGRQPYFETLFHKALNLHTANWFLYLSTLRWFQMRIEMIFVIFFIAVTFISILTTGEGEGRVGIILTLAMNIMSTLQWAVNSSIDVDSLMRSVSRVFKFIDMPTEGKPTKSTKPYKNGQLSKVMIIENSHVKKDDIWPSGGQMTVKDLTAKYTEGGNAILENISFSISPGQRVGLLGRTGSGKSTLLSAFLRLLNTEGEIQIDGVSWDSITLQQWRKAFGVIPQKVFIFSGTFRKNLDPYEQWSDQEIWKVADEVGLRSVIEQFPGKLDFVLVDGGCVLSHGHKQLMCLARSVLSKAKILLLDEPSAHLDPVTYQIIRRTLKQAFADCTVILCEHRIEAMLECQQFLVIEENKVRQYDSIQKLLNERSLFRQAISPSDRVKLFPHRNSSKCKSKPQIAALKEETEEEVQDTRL

Ratio CFTR C/C + B (%) (CFTR; HeLa CFTR WT, Ctr. 65.1)	Compound	mature form of CFTR (Western blot) (CFTR; WT-CFTR HeLa cells)	IL-8 production (IL-8 production)	transcriptional activity of NF-κB [1]	transcriptional activity of NF-κB ([2]; BEAS-2B and HeLa cells with wt or deltaF508-CFTR (FIGS. 1A, B))	inhibition of cyclooxygenase (cyclooxygenase)	NF-κB transcriptional activity ([2]; 250 μM, HeLa CFTR wt and CFTR DF508 (FIG. 8A))	IL-8 promoter activity (IL-8 promoter)
80.6	CC(C)Cc1ccc(C(C)C(=O)O)cc1 (stereo not drawn) [ibuprofen]	significant increase of mature form of CFTR	not accompanied by a decreased of IL-8 production	inhibits the transcriptional activity of NF-κB	inhibits transcriptional activity of NF-κB similar to ibuprofen	–	–	–
–	CSc1ccc(/C=C2/C(C)=C(CC(=O)O)c3cc(F)ccc32)cc1 [sulindac sulfide]	–	–	–	–	inhibits cyclooxygenase activity	–	–
–	C=S(C)(=O)c1ccc(/C=C2/C(C)=C(CC(=O)O)c3cc(F)ccc32)cc1 (stereo not drawn) [sulindac sulfone]	–	–	–	–	inactif on COX; also recorded: does not inhibit cyclooxygenase	inhibits the transcriptional activity of NF-κB	at least as effective as sulindac; also recorded: inhibits
